Results from patent US20220381657A1, “METHOD FOR PREPARING BIOLOGICAL MATERIAL HAVING EXCELLENT LIGHT-TRANSMITTING PROPERTY” (RIKEN, priority 2016, published 2022).

Test system: fixed brain tissue suspension
Assay: 1st delipidation assay: solubilization of fixed brain tissue suspension, turbidity at 600 nm
Parameters: species or system mice
Settings: not given
Experimental: Specifically, brains taken out of mice were sheared with a utility knife and then were disrupted by ultrasonication. To each of the resultant suspensions, an equal volume of 8% PFA solution was added to perform fixation at 4° C. for 1 hour. The resultant mixture was centrifuged to remove the supernatant, and the fixed brain tissue was washed with PBS for 3 times. PBS was added so as to obtain 2 mL of a fixed brain tissue suspension per brain. The fixed brain tissue suspension was diluted by 3.5 folds. To 20 μL of the resultant suspension, 130 μL of each 10 wt % chemical was added and was shaken at 37° C. overnight. Thus obtained mixed solutions were subjected to absorbance (turbidity) measurement at 600 nm. It is expected that a chemical solution which reduces the turbidity of a fixed brain suspension allows reducing light scattering by solubilizing lipids, which act as a scattering factor, in the brain tissue.

Compared with Dodecene-1 LAS [#0672], “Polyethylene glycol mono-4-octylphenyl ether [#1103]” is higher in “1st delipidation assay Relative OD600” value: 0.152 for the first, 0.184 for the second.

Same assay, conditions: Table 1; 10 wt % chemical, fixed mouse brain suspension, 37° C. overnight; PBS = 1.000

First: NCC1CCCC(CN)C1 (centres unmarked) [#0070, 1,3-Bis(aminomethyl) cyclohexane]
Second: NCC1CCC(CN)CC1 (centres unmarked) [#0071, 1,4-Bis(aminomethyl) cyclohexane]
The “1st delipidation assay Relative OD600” value of the first is lower: 0.286 for the first, 0.318 for the second.

First: CC(C)(C)N(CCO)CCO [#0390, N-tert- Butyldiethanolamine]
Second: CCCCCCCCCC(=O)N(C)CC(=O)[O-].[Na+] [#0703, N-Decanoylsarcosine sodium salt]
The “1st delipidation assay Relative OD600” value of the first is higher: 0.318 for the first, 0.223 for the second.

First: CCCCNCCN [#0422, N-Butylethylenediamine]
Second: CC(C)NCCCN [#1027, N-Isopropyl-1,3-diaminopropane]
The “1st delipidation assay Relative OD600” value of the first is higher: 0.307 for the first, 0.219 for the second.

Compared with `C[C@H](CCC(=O)[O-])[C@H]1CC[C@H]2[C@@H]3CC[C@@H]4C[C@H](O)CC[C@]4(C)[C@H]3C[C@H](O)[C@]12C.[Na+]` [#0562, Sodium deoxycholate], `CC(C)CCN` [#1038, Isoamylamine] is higher in “1st delipidation assay Relative OD600” value: 0.170 for the first, 0.247 for the second.

First: CCCCCCCCCCS(=O)(=O)[O-].[Na+] [#0625, Sodium 1-decanesulfonate]
Second: CCCCCCCCCS(=O)(=O)[O-].[Na+] [#0870, Sodium 1-nonanesulfonate]
The “1st delipidation assay Relative OD600” value of the first is higher: 0.325 for the first, 0.247 for the second.

Compared with `Cc1cccc(C)n1` [#1008, 2,6-Lutidine], `OCC(O)c1ccccc1` (centres unmarked) [#1074, 1-Phenylethane-1,2-diol] is higher in “1st delipidation assay Relative OD600” value: 0.314 for the first, 0.336 for the second.

For `CCCCCCCCCCCC[N+](C)(C)C.[Cl-]` [#1021, Dodecyltrimethyl- ammonium chloride], the “1st delipidation assay Relative OD600” value was 0.194.

Test system: bovine coagulated blood
Assay: Decoloring screening: heme eluted from bovine coagulated blood (OD420-OD700)
Settings: decolorization; OD420 calibrated by OD700
Experimental: A high-throughput screening system for evaluating the decoloring ability of various compounds was constructed. The screening system involved adding an aqueous solution of each compound to bovine coagulated blood and then measuring the absorbance of heme collected in the supernatant.
Specifically, to bovine blood, an equal amount of 8% PFA solution was added, and reacted at 4° C. overnight. The mixed liquid was centrifuged at 1500×g for 5 minutes, and the supernatant containing PFA was discarded. Then, the same amount of PBS as the original volume of blood was added to prepare a coagulated blood sample. To 150 μL of 10 wt % aqueous solution of each compound, 50 μL of the coagulated blood sample was added, and reacted at 37° C. overnight. The reaction solution was centrifuged at 1500×g for 5 minutes, and then 100 μL of the supernatant was added to a plate so as to be subjected to absorbance measurement. A sample which is suspended in water instead of being dissolved in the water has a weak decoloring effect, but none the less has a high absorbance value. […]

First: NCC1CCCC(CN)C1 (centres unmarked) [#0070, 1,3-Bis(aminomethyl) cyclohexane]
Second: NCC1CCC(CN)CC1 (centres unmarked) [#0071, 1,4-Bis(aminomethyl) cyclohexane]
The “700 nm calibrated 420 nm Average” value of the first is lower: 3.15 for the first, 3.25 for the second.

Going from `C[C@H](CCC(=O)[O-])[C@H]1CC[C@H]2[C@@H]3CC[C@@H]4C[C@H](O)CC[C@]4(C)[C@H]3C[C@H](O)[C@]12C.[Na+]` [#0562, Sodium deoxycholate] to `Cc1cccc(C)n1` [#1008, 2,6-Lutidine], the “700 nm calibrated 420 nm Average” value rises from 1.18 to 2.00.

First: CCCCCCCCCCCC[N+](C)(C)C.[Cl-] [#1021, Dodecyltrimethyl- ammonium chloride]
Second: CC(C)NCCCN [#1027, N-Isopropyl-1,3-diaminopropane]
The “700 nm calibrated 420 nm Average” value of the first is higher: 1.96 for the first, 1.52 for the second.

In the case of Dodecene-1 LAS [#0672], the “700 nm calibrated 420 nm Average” value is reported as 1.45.

Same assay, conditions: decolorization; integrated absorbance 500-700 nm

Compared with `NCC1CCCC(CN)C1` (centres unmarked) [#0070, 1,3-Bis(aminomethyl) cyclohexane], `NCC1CCC(CN)CC1` (centres unmarked) [#0071, 1,4-Bis(aminomethyl) cyclohexane] is lower in “integrated value 500-700 nm Average” value: 1.91 for the first, 1.90 for the second.

First: C[C@H](CCC(=O)[O-])[C@H]1CC[C@H]2[C@@H]3CC[C@@H]4C[C@H](O)CC[C@]4(C)[C@H]3C[C@H](O)[C@]12C.[Na+] [#0562, Sodium deoxycholate]
Second: Cc1cccc(C)n1 [#1008, 2,6-Lutidine]
The “integrated value 500-700 nm Average” value of the first is lower: 0.98 for the first, 2.16 for the second.

Going from `CCCCCCCCCCCC[N+](C)(C)C.[Cl-]` [#1021, Dodecyltrimethyl- ammonium chloride] to `CC(C)NCCCN` [#1027, N-Isopropyl-1,3-diaminopropane], the “integrated value 500-700 nm Average” value falls from 1.70 to 1.24.

For Dodecene-1 LAS [#0672], the “integrated value 500-700 nm Average” value was 1.41.

Test system: Serius
Assay: not given
Settings: not given

Going from `CCCCCCCCCCCC[N+](C)(C)C.[Cl-]` [#1021, Dodecyltrimethyl- ammonium chloride] to Dodecene-1 LAS [#0672], the “Fluorescence quench Average” value falls from 1.11 to 1.08.

Same assay, conditions: relative fluorescence

Compared with `NCC1CCCC(CN)C1` (centres unmarked) [#0070, 1,3-Bis(aminomethyl) cyclohexane], `NCC1CCC(CN)CC1` (centres unmarked) [#0071, 1,4-Bis(aminomethyl) cyclohexane] is lower in “Fluorescence quench Average” value: 0.62 for the first, 0.56 for the second.

Going from `C[C@H](CCC(=O)[O-])[C@H]1CC[C@H]2[C@@H]3CC[C@@H]4C[C@H](O)CC[C@]4(C)[C@H]3C[C@H](O)[C@]12C.[Na+]` [#0562, Sodium deoxycholate] to `CC(C)NCCCN` [#1027, N-Isopropyl-1,3-diaminopropane], the “Fluorescence quench Average” value falls from 1.08 to 0.55.

In the case of `Cc1cccc(C)n1` [#1008, 2,6-Lutidine], the “Fluorescence quench Average” value is reported as 0.71.

Test system: not given
Assay: not given
Settings: OD at 400 nm of the chemical

Compared with `NCC1CCCC(CN)C1` (centres unmarked) [#0070, 1,3-Bis(aminomethyl) cyclohexane], `NCC1CCC(CN)CC1` (centres unmarked) [#0071, 1,4-Bis(aminomethyl) cyclohexane] is lower in 400 nm: 0.079 for the first, 0.054 for the second.

Compared with `C[C@H](CCC(=O)[O-])[C@H]1CC[C@H]2[C@@H]3CC[C@@H]4C[C@H](O)CC[C@]4(C)[C@H]3C[C@H](O)[C@]12C.[Na+]` [#0562, Sodium deoxycholate], `CC(C)NCCCN` [#1027, N-Isopropyl-1,3-diaminopropane] is higher in 400 nm: 0.054 for the first, 0.061 for the second.

Work on `Cc1cccc(C)n1` [#1008, 2,6-Lutidine] yielded a 400 nm of 0.063.

Same assay, conditions: Table 1

Compared with `NCC1CCCC(CN)C1` (centres unmarked) [#0070, 1,3-Bis(aminomethyl) cyclohexane], `NCC1CCC(CN)CC1` (centres unmarked) [#0071, 1,4-Bis(aminomethyl) cyclohexane] is lower in OD400: 0.079 for the first, 0.054 for the second.

Going from `CC(C)(C)N(CCO)CCO` [#0390, N-tert- Butyldiethanolamine] to `CCCCCCCCCC(=O)N(C)CC(=O)[O-].[Na+]` [#0703, N-Decanoylsarcosine sodium salt], the OD400 falls from 0.052 to 0.047.

First: CCCCNCCN [#0422, N-Butylethylenediamine]
Second: CC(C)NCCCN [#1027, N-Isopropyl-1,3-diaminopropane]
The OD400 of the first is lower: 0.05 for the first, 0.061 for the second.

First: C[C@H](CCC(=O)[O-])[C@H]1CC[C@H]2[C@@H]3CC[C@@H]4C[C@H](O)CC[C@]4(C)[C@H]3C[C@H](O)[C@]12C.[Na+] [#0562, Sodium deoxycholate]
Second: CC(C)CCN [#1038, Isoamylamine]
The OD400 of the first is lower: 0.054 for the first, 0.055 for the second.

Compared with `CCCCCCCCCCS(=O)(=O)[O-].[Na+]` [#0625, Sodium 1-decanesulfonate], `CCCCCCCCCS(=O)(=O)[O-].[Na+]` [#0870, Sodium 1-nonanesulfonate] is higher in OD400: 0.046 for the first, 0.047 for the second.

First: Cc1cccc(C)n1 [#1008, 2,6-Lutidine]
Second: OCC(O)c1ccccc1 (centres unmarked) [#1074, 1-Phenylethane-1,2-diol]
The OD400 of the first is higher: 0.063 for the first, 0.05 for the second.

Test system: not given
Assay: not given
Settings: Table 1

Compared with `NCC1CCCC(CN)C1` (centres unmarked) [#0070, 1,3-Bis(aminomethyl) cyclohexane], `NCC1CCC(CN)CC1` (centres unmarked) [#0071, 1,4-Bis(aminomethyl) cyclohexane] is higher in pH: 13.0 for the first, 13.3 for the second.

First: CC(C)(C)N(CCO)CCO [#0390, N-tert- Butyldiethanolamine]
Second: CCCCCCCCCC(=O)N(C)CC(=O)[O-].[Na+] [#0703, N-Decanoylsarcosine sodium salt]
The pH of the first is higher: 12.7 for the first, 7.0 for the second.

Going from `CCCCNCCN` [#0422, N-Butylethylenediamine] to `CC(C)NCCCN` [#1027, N-Isopropyl-1,3-diaminopropane], the pH rises from 12.7 to 13.4.

Going from `C[C@H](CCC(=O)[O-])[C@H]1CC[C@H]2[C@@H]3CC[C@@H]4C[C@H](O)CC[C@]4(C)[C@H]3C[C@H](O)[C@]12C.[Na+]` [#0562, Sodium deoxycholate] to `CC(C)CCN` [#1038, Isoamylamine], the pH rises from 8.3 to 9.6.

First: CCCCCCCCCCS(=O)(=O)[O-].[Na+] [#0625, Sodium 1-decanesulfonate]
Second: CCCCCCCCCS(=O)(=O)[O-].[Na+] [#0870, Sodium 1-nonanesulfonate]
The pH of the first is lower: 5.9 for the first, 6.8 for the second.

Going from `Cc1cccc(C)n1` [#1008, 2,6-Lutidine] to `OCC(O)c1ccccc1` (centres unmarked) [#1074, 1-Phenylethane-1,2-diol], the pH falls from 9.9 to 9.5.

Same assay, conditions: Table 4

In the case of `NCC1CCC(CN)CC1` (centres unmarked) [#0071, 1,4-Bis(aminomethyl) cyclohexane], the pH is reported as 13.27.

Same assay, conditions: […]

First: NCC1CCCC(CN)C1 (centres unmarked) [#0070, 1,3-Bis(aminomethyl) cyclohexane]
Second: NCC1CCC(CN)CC1 (centres unmarked) [#0071, 1,4-Bis(aminomethyl) cyclohexane]
The pH of the first is lower: 13.0 for the first, 13.3 for the second.

First: C[C@H](CCC(=O)[O-])[C@H]1CC[C@H]2[C@@H]3CC[C@@H]4C[C@H](O)CC[C@]4(C)[C@H]3C[C@H](O)[C@]12C.[Na+] [#0562, Sodium deoxycholate]
Second: CC(C)NCCCN [#1027, N-Isopropyl-1,3-diaminopropane]
The pH of the first is lower: 8.3 for the first, 13.4 for the second.

For `Cc1cccc(C)n1` [#1008, 2,6-Lutidine], the pH was 9.9.
